The assay has as its target T1, TGFβ R1 (Homo sapiens, UniProt P36897).
T1 sequence (P36897 34-503): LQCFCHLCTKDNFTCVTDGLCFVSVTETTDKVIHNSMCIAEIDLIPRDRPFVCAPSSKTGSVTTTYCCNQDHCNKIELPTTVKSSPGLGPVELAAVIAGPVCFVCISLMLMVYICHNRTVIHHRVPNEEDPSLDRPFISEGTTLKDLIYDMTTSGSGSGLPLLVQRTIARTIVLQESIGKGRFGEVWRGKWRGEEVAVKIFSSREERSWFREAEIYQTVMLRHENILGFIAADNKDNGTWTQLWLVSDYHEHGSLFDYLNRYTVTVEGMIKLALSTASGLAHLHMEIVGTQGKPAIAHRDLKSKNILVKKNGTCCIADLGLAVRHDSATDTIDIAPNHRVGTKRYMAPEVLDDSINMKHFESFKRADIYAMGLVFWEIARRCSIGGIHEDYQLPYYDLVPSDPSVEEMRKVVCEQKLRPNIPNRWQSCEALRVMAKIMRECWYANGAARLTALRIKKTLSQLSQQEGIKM
The experiment in a line: TGFβ R1 autophosphorylation protocol (33P-ATP, phosphocellulose filter plate). It counts as biochemical. The conditions noted are these: 10 uM ATP, 170 nM TGFβ R1, 20 minutes at room temperature, read-out: IC50 for Kinase Inhibition. The protocol:
The compounds of the invention were tested for their ability to inhibit TGFβ by a TGFβ R^1 autophosphorylation protocol. This was conducted as follows: Compound dilutions and reagents were prepared fresh daily. Compounds were diluted from DMSO stock solutions to 2 times the desired assay concentration, keeping final DMSO concentration in the assay less than or equal to 1%. TGFβ R1 was diluted to 4 times the desired assay concentration in buffer+DTT. ATP was diluted into 4× reaction buffer, and gamma-^33P-ATP was added at 60 uCi/mL.
The assay was performed by adding 10 ul of the enzyme to 20 ul of the compound solution. The reaction was initiated by the addition of 10 ul of ATP mix. Final assay conditions included 10 uM ATP, 170 nM TGFβ R1, and […] in 20 mM MOPS, pH7. The reactions were incubated at room temperature for 20 minutes. The reactions were stopped by transferring 23 ul of reaction mixture onto a phosphocellulose 96-well filter plate, which had been pre-wetted with 15 ul of 0.25M H3PO4 per well. After 5 minutes, the wells were washed 4× with 75 mM H3PO4 and once with 95% ethanol. The plate was dried, scintillation cocktail was added to each well, and the wells were counted in a Packard TopCount microplate scintillation counter.
Consider `COc1cnc(-c2cc(Cl)ccc2F)nc1Nc1ccncc1C(=O)NCCCNC(=O)OC(C)(C)C` [Compound 33, [3-({4-[2-(5-Chloro-2-fluoro-phenyl)-5-methoxy-pyrmidin-4-ylamino]-pyridine-3-carbonyl}-amino)-propyl]-carbamic acid tert-butyl ester], for which the IC50 – broadly, the concentration needed to halve the response being measured – came to 1130 nM. For the molecule `COc1cnc(-c2cc(Cl)ccc2F)nc1Nc1ccncc1C(=O)NC[C@H]1O[C@@H](O)[C@H](O)[C@@H](O)[C@@H]1O` [Compound 34, 4-[2-(5-Chloro-2-fluoro-phenyl)-5-methoxy-pyrimidin-4-ylamino)-N-(3,4,5,6-tetahydroxy-tetrahrydro-pyran-2-ylmethyl)-nicotinamide], the IC50 came out at 1160 nM. The figure for `COc1cnc(-c2cc(Cl)ccc2F)nc1Nc1ccncc1C(=O)NCC(F)F` [Compound 36, 4-[2-(5-Chloro-2-fluoro-phenyl)-5-methoxy-pyrimidin-4-ylamino]-N-(2,2-difluoro-ethyl)-nicotinamide] is 670 nM; for `COc1cnc(-c2cc(Cl)ccc2F)nc1Nc1ccncc1C(=O)NCC(F)(F)F` [Compound 37, 4-[2-(5-Chloro-2-fluoro-phenyl)-5-methoxy-pyrimidin-4-ylamino]-N-(2,2,2-trifluoro-ethyl)-nicotinamide] it is 160 nM.

As for `COc1cnc(-c2cc(Cl)ccc2F)nc1Nc1ccncc1C(=O)NCCCN1CCN(C)CC1` [Compound 38, 4-[2-(5-Chloro-2-fluoro-phenyl)-5-methoxy-pyrimidin-4-ylamino]-N-[3-(4-methyl-piperazin-1-yl)-propyl]-nicotinamide], the IC50 was 540 nM. As for `COc1cnc(-c2cc(Cl)ccc2F)nc1Nc1ccncc1C(=O)NCCN` [Compound 39, N-(2-Amino-ethyl)-4-[2-(5-chloro-2-fluoro-phenyl)-5-methoxy-pyrimidin-4-ylamino]-nicotinamide], the IC50 is 50 nM. The figure for `CN/C(=N\C#N)NCCCNC(=O)c1cnccc1Nc1nc(-c2cc(Cl)ccc2F)ncc1OC` [Compound 41] is 50 nM; for `COc1cnc(-c2cc(Cl)ccc2F)nc1Nc1ccncc1C(=O)NCCCN/C(=N/C#N)NC(C)C` [Compound 42] it is 120 nM. To `COc1cnc(-c2cc(Cl)ccc2F)nc1Nc1ccncc1C(=O)NCCCN/C(=N/C#N)N1CCOCC1` [Compound 43] belongs 60 nM. The figure for `COc1cnc(-c2cc(Cl)ccc2F)nc1Nc1ccncc1C(=O)NCCCN/C(=N/C#N)N1CCC1` [Compound 44] is 130 nM; for `CN(C)c1cnc(-c2cc(Cl)ccc2F)nc1Nc1ccncc1C(=O)NCCNCCO` [Compound 50] it is 20 nM. As to `CN(C)c1cnc(-c2cc(Cl)ccc2F)nc1Nc1ccncc1C(=O)NCC(C)(C)O` [Compound 51], the 50% inhibitory concentration (IC50) was found to be 120 nM. For `CC(C)c1cnc(-c2cc(Cl)ccc2F)nc1Nc1ccncc1C(=O)NCC(C)(C)O` [Compound 52, 4-[2-(5-Chloro-2-fluoro-phenyl)-5-isopropyl-pyrimidin-4-ylamino]-N-(2-hydroxy-2-methyl-propyl)-nicotinamide], the IC50 is 90 nM.

In the case of `COc1cnc(-c2cc(Cl)ccc2F)nc1Nc1ccncc1C(=O)NC[C@H](O)[C@@H](O)CN` [Compound 55, N-(4-Amino-2,3-dihydroxy-butyl)-4-[2-(5-chloro-2-fluoro-phenyl)-5-methoxy-pyrimidin-4-ylamino]-nicotinamide], the IC50 turned out to be 130 nM. To `COc1cnc(-c2cc(Cl)ccc2F)nc1Nc1ccncc1C(=O)NCC(C)C(=O)O` (stereo not shown) [Compound 56, 3-({4-[2-(5-Chloro-2-fluoro-phenyl)-5-methoxy-pyrimidin-4-ylamino)-pyridine-3-carbonyl)-amino)-2-methyl-propionic acid] belongs 1200 nM; to `COc1cnc(-c2cc(Cl)ccc2F)nc1Nc1ccncc1C(=O)NCCn1cccc1` [Compound 57, 4-[2-(5-Chloro-2-fluoro-phenyl)-5-methoxy-pyrimidin-4-ylamino]-N-(2-pyrrol-1-yl-ethyl)-nicotinamide], 70 nM.

The record behind these values is patent US20060281763A1, “Carboxamide inhibitors of TGFbeta” (priority 2005, published 2006).
